Data: patent publication US9212168B2 (priority 2011, dated 2015)

Tests used:
[1] = system: HCV genotype 2a (J6 strain) NS5A chimeric replicon; assay: Replicon assay against NS5A sequence of genotype 2a (J6 strain), intergenotypic chimera; assay type: cell-based; conditions: Hepatitis C virus, read-out: Genotype 2a (J6)
Protocol: (§1) Assay 4: Replicon Assays Against NS5A Sequences of Other Genotypes
(§2) Potencies of test compounds against NS5A sequences of other genotypes were determined by creating intergenotypic chimeras. The entire NS5A gene from genotypes 2a, 2b, 3a, 4a, 5a, and 6a, or the nucleotide sequence encoding amino acids 11-118 of NS5A, was subcloned into a genotype 1b replicon. For genotype 2a, intergenotypic chimeras with both the JFH and the J6 strain were created. […] Since the majority of genotype 2a sequences in public databases contain the L31M sequence variant, the use of the J6 genotype 2a sequence may better reflect the antiviral potency of NS5A inhibitors.
(§3) These chimeric replicon plasmids were then linearized and in vitro transcribed to RNA. The RNA was used to transiently or stably transfect Huh-LUNET cells by electroporation, and the potencies of test compounds against the chimeras were determined as previously described.

[2] = system: HCV genotype 1a Y93H resistant mutant replicon; assay: Replicon assay against resistant mutant 1a Y93H (transient transfection); assay type: cell-based; conditions: Hepatitis C virus, read-out: Genotype 1a Y93H
Protocol: Assay 3: Replicon Assays Against Resistant Mutants […]
Potencies of test compounds against additional mutations of interest were determined using transient transfection assays. These mutants included genotype 1a Y93C, Y93H, M28T, Q30E, Q30K, L31M, and Y93N. The mutation was first introduced into the parental plasmid by site-directed mutagenesis. The replicon plasmid was then linearized and in vitro transcribed to RNA. The RNA was used to transiently transfect Huh-LUNET cells (obtained from ReBLikon GmbH, Schriesheim, Germany) by electroporation, and the potencies of test compounds against the mutants were determined as previously described.

[3] = system: HCV genotype 1b replicon; assay: HCV genotype 1b replicon assay (Renilla luciferase readout); assay type: cell-based, hepatitis C virus; conditions: for EC50: Hepatitis C virus, read-out: Genotype 1b; for Genotype 1b: HCV genotype 1b replicon
Summary of the method: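 Huh7-derived APC144 subgenomic replicon cells carrying Renilla luciferase–NS3-NS5B, seeded 10,000/well without G418, then treated with compound dose-responses for 48 h at 37 °C (0.5% DMSO final). Luciferase signal fitted by 4-parameter model to EC50, reported as pEC50.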

[4] = system: HCV genotype 3a NS5A chimeric replicon; assay: Replicon assay against NS5A sequence of genotype 3a, intergenotypic chimera; assay type: cell-based; conditions: Hepatitis C virus, read-out: Genotype 3a
Protocol: as §1, §2, §3

[5] = system: HCV genotype 1a replicon; assay: HCV genotype 1a replicon assay (NS3 protease activity readout); assay type: cell-based, hepatitis C virus; conditions: for EC50: Hepatitis C virus, read-out: Genotype 1a, HCV genotype 1a replicon; for Genotype 1a: HCV genotype 1a replicon
Summary of the method: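 Genotype 1a subgenomic replicon cells (APC89, Huh7.5) were treated with compound dose-responses in G418-free medium, 0.5% DMSO final, for 48 or 72 hours at 37° C. Lysate NS3/4a protease activity measured with 15 μM FRET substrate, 20 min at 37° C (ex 340/em 509 nm); EC50 by 4-parameter fit.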

## COC(=O)N[C@H](C(=O)N1C[C@@H](C(N)=O)C[C@H]1c1nc(-c2ccc(-c3cc(Cl)c(NC(=O)c4ccc(N5CCN(C(=O)C(C)(C)C)C[C@H]5C)nc4)cc3OC(F)(F)F)cc2)c[nH]1)C(C)C [Example 18, [(S)-1-((2S,4S)-4-Carbamoyl-2-{4-[5′-chloro-4′-({6-[(R)-4-(2,2-dimethyl-propionyl)-2-methyl-piperazin-1-yl]-pyridine-3-carbonyl}-amino)-2′-trifluoromethoxy-biphenyl-4-yl]-1H-imidazol-2-yl}-pyrrolidine-1-carbonyl)-2-methyl-propyl]-carbamic acid methyl ester]
[1]
  EC50: 0.1 to 1 nM
[2]
  EC50: 1 to 10 nM
[3]
  EC50: < 0.1 nM
[4]
  EC50: 1 to 10 nM
[5]
  EC50: < 0.1 nM

## CNC(=O)N1C[C@@H](C)N(c2ccc(C(=O)Nc3cc(OC(F)(F)F)c(-c4ccc(-c5c[nH]c([C@@H]6C[C@H](C)CN6C(=O)[C@@H](NC(=O)OC)C(C)C)n5)cc4)cc3Cl)cn2)C[C@@H]1C [Example 1, ((S)-1-{(2S,4S)-2-[4-(5′-Chloro-4′-{[6-((2R,5S)-2,5-dimethyl-4-methylcarbamoyl-piperazin-1-yl)-pyridine-3-carbonyl]-amino}-2′-trifluoromethoxy-biphenyl-4-yl)-1H-imidazol-2-yl]-4-methyl-pyrrolidine-1-carbonyl}-2-methyl-propyl)-carbamic acid methyl ester]
[1]
  EC50: 10 to 1000 nM
[2]
  EC50: 10 to 1000 nM
[3]
  EC50: < 0.1 nM
[4]
  EC50: 10 to 1000 nM
[5]
  EC50: < 0.1 nM

## COC(=O)N[C@H](C(=O)N1C[C@@H](C)C[C@H]1c1nc(-c2ccc(-c3c(Cl)cc(C(=O)Nc4ccc(N5CCN(C(=O)C(C)(C)C)C[C@H]5C)nc4)cc3OC(F)(F)F)cc2)c[nH]1)C1CCOCC1 [Example 20, Methyl ((S)-2-((2S,4S)-2-(4-(2′-chloro-4′-((6-((R)-2-methyl-4-pivaloylpiperazin-1-yl)pyridin-3-yl)carbamoyl)-6′-(trifluoromethoxy)-[1,1′-biphenyl]-4-yl)-1H-imidazol-2-yl)-4-methylpyrrolidin-1-yl)-2-oxo-1-(tetrahydro-2H-pyran-4-yl)ethyl)carbamate]
[1]
  EC50: 1 to 10 nM
[2]
  EC50: 1 to 10 nM
[3]
  EC50: < 0.1 nM
[4]
  EC50: 1 to 10 nM
[5]
  EC50: < 0.1 nM

## COC(=O)N[C@H](C(=O)N1C[C@@H](OC)C[C@H]1c1nc(-c2ccc(-c3cc(Cl)c(NC(=O)c4ccc(N5CCN(C(=O)C(C)(C)CO)C[C@H]5C)nc4)cc3OC(F)(F)F)cc2)c[nH]1)C1CCOCC1 [Example 16, [(S)-2-((2S,4S)-2-{4-[5′-Chloro-4′-({6-[(R)-4-(3-hydroxy-2,2-dimethyl-propionyl)-2-methyl-piperazin-1-yl]-pyridine-3-carbonyl}-amino)-2′-trifluoromethoxy-biphenyl-4-yl]-1H-imidazol-2-yl}-4-methoxy-pyrrolidin-1-yl)-2-oxo-1-(tetrahydro-pyran-4-yl)-ethyl]-carbamic acid methyl ester]
[1]
  EC50: 1 to 10 nM
[2]
  EC50: 1 to 10 nM
[3]
  EC50: < 0.1 nM
[4]
  EC50: 1 to 10 nM
[5]
  EC50: < 0.1 nM

## COC(=O)N[C@H](C(=O)N1C[C@@H](C)C[C@H]1c1nc(-c2ccc(-c3cc(Cl)c(NC(=O)c4ccc(N5CCN(C(=O)[C@H]6CC6(C)C)C[C@H]5C)nc4)cc3OC(F)(F)F)cc2)c[nH]1)C(C)C [Example 2, [(S)-1-((2S,4S)-2-{4-[5′-Chloro-4′-({6-[(R)-4-((S)-2,2-dimethyl-cyclopropanecarbonyl)-2-methyl-piperazin-1-yl]-pyridine-3-carbonyl}-amino)-2′-trifluoromethoxy-biphenyl-4-yl]-1H-imidazol-2-yl}-4-methyl-pyrrolidine-1-carbonyl)-2-methyl-propyl]-carbamic acid methyl ester]
[1]
  EC50: 1 to 10 nM
[3]
  EC50: < 0.1 nM
[4]
  EC50: 1 to 10 nM
[5]
  EC50: < 0.1 nM

## COC(=O)N[C@H](C(=O)N1C[C@@H](OC)C[C@H]1c1nc(-c2ccc(-c3cc(Cl)c(NC(=O)c4ccc(N5CCN(C(=O)C(C)(C)C)C[C@H]5C)nc4)cc3OC(F)(F)F)cc2)c[nH]1)C1CCOCC1 [Example 15]
[1]
  EC50: 0.1 to 1 nM
[2]
  EC50: 1 to 10 nM
[3]
  EC50: < 0.1 nM
[4]
  EC50: 0.1 to 1 nM
[5]
  EC50: < 0.1 nM

## COC(=O)N[C@H](C(=O)N1C[C@@H](C)C[C@H]1c1nc(-c2ccc(-c3cc(Cl)c(NC(=O)c4ccc(N5CCN(C(=O)C(C)(C)C)C[C@H]5C)nc4)cc3OC(F)(F)F)cc2)c[nH]1)C1CCOCC1 [Example 14]
[1]
  EC50: 0.1 to 1 nM
[2]
  EC50: 1 to 10 nM
[3]
  EC50: < 0.1 nM
[4]
  EC50: 0.1 to 1 nM
[5]
  EC50: < 0.1 nM

## COC(=O)N[C@H](C(=O)N1C[C@@H](C#N)C[C@H]1c1nc(-c2ccc(-c3cc(Cl)c(NC(=O)c4ccc(N5CCN(C(=O)OC(C)(C)C)C[C@H]5C)nc4)cc3OC(F)(F)F)cc2)c[nH]1)C(C)C [Example 17, (R)-4-[5-(5-Chloro-4′-{2-[(2S,4S)-4-cyano-1-((S)-2-methoxycarbonylamino-3-methyl-butyryl)-pyrrolidin-2-yl]-1H-imidazol-4-yl}-2-trifluoromethoxy-biphenyl-4-ylcarbamoyl)-pyridin-2-yl]-3-methyl-piperazine-1-carboxylic acid tert-butyl ester]
[1]
  EC50: 10 to 1000 nM
[2]
  EC50: 10 to 1000 nM
[4]
  EC50: 10 to 1000 nM
[5]
  EC50: 0.1 to 1 nM

## COC(=O)N[C@H](C(=O)N1C[C@@H](C)C[C@H]1c1nc(-c2ccc(-c3ccc(C(=O)Nc4ccc(N5C[C@H](C)N(C(=O)[C@H]6CC6(C)C)C[C@H]5C)nc4)cc3OC(F)(F)F)cc2)c[nH]1)C(C)C [Example 7, ((S)-1-{(2S,4S)-2-[4-(4′-{6-[(2R,5S)-4-((S)-2,2-Dimethyl-cyclopropanecarbonyl)-2,5-dimethyl-piperazin-1-yl]-pyridin-3-ylcarbamoyl}-2′-trifluoromethoxy-biphenyl-4-yl)-1H-imidazol-2-yl]-4-methyl-pyrrolidine-1-carbonyl}-2-methyl-propyl)-carbamic acid methyl ester]
[1]
  EC50: 10 to 1000 nM
[3]
  EC50: < 0.1 nM
[4]
  EC50: 10 to 1000 nM
[5]
  EC50: < 0.1 nM

## COC(=O)N[C@H](C(=O)N1C[C@@H](SC)C[C@H]1c1nc(-c2ccc(-c3ccc(C(=O)Nc4ccc(N5CCN(C(=O)[C@H]6CC6(C)C)C[C@H]5C)nc4)cc3OC(F)(F)F)cc2)c[nH]1)C(C)C [Example 9, ((S)-1-{(2S,4S)-2-[4-(4′-{6-[(R)-4-((S)-2,2-Dimethyl-cyclopropanecarbonyl)-2-methyl-piperazin-1-yl]-pyridin-3-ylcarbamoyl}-2′-trifluoromethoxy-biphenyl-4-yl)-1H-imidazol-2-yl]-4-methylsulfanyl-pyrrolidine-1-carbonyl}-2-methyl-propyl)-carbamic acid methyl ester]
[1]
  EC50: 10 to 1000 nM
[3]
  EC50: < 0.1 nM
[4]
  EC50: 10 to 1000 nM
[5]
  EC50: < 0.1 nM

## COC(=O)N[C@H](C(=O)N1C[C@@H](N(C)C)C[C@H]1c1nc(-c2ccc(-c3ccc(NC(=O)c4ccc(N5CCN(C(=O)c6c[nH]cn6)C[C@H]5C)nc4)cc3)cc2)c[nH]1)C(C)C [Example 2-1]
[3]
  Genotype 1b: D (D represents pEC50>10 (EC50<0.1 nM))
[5]
  Genotype 1a: C (C represents pEC50 between and 9 and about 10, (EC50 between 1 nM and 0.1 nM))

## COC(=O)N[C@H](C(=O)N1C[C@@H](C)C[C@H]1c1nc(-c2ccc(-c3ccc(NC(=O)c4ccc(N5CCN(C(=O)C(C)(C)C)C[C@H]5C)nc4)cc3OC(F)(F)F)cc2)c[nH]1)C(C)C [Example 1-75]
[3]
  Genotype 1b: D (D represents pEC50>10 (EC50<0.1 nM))
[5]
  Genotype 1a: D (D represents pEC50>10 (EC50<0.1 nM))
